Here are results for 38 sequences from article PMC11714206, “Massively Parallel Screening of Toll/Interleukin‐1 Receptor (TIR)‐Derived Peptides Reveals Multiple Toll‐Like Receptors (TLRs)‐Targeting Immunomodulatory Peptides” (Advanced Science, 2024).

In this test the target is T1, MyD88^TIR (Homo sapiens, UniProt Q99836).
T1 construct: MyD88 (residues 148–296); 6xHis; made in house; host or cells: E. coli BL21 (DE3)
The test is described as follows: T‐Surf phage library (P8 and P3) selection against MyD88^TIR, four rounds, NGS read counts. Particulars: for P8_MyD88 Rank (after) / P8_MyD88 Rank (before): P8 library; for P3_MyD88 Rank (after) / P3_MyD88 Rank (before): P3 library; for Population: P3_MyD88 pool: P3 T-Surf phage library, 4th round of selection against MyD88 TIR, share of NGS reads. The format is binding. The essentials:
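Four panning rounds on TIR domain adsorbed at 5 µg mL^−1; binding 1 h at 20–22 °C, elution with 100 mM HCl. Output: NGS read counts of round‐4 pools versus naïve library.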

The mark [1] stands for this setting: P8_MyD88: rank by count after grouping.
[2] abbreviates: P8_MyD88: rank by count before grouping.
The mark [3] stands for this setting: 4R selection against MyD88, rank after grouping.
Setting [4] is: 4R selection against MyD88, rank before grouping.
Where [5] appears, read: selection against MyD88, rank after grouping.
The mark [6] stands for this setting: selection against MyD88, rank before grouping.
Setting [7] is: P8_MyD88: rank by NGS read count after grouping.
The mark [8] stands for this setting: P8_MyD88: rank by NGS read count before grouping.
Setting [9] is: selection against MyD88 TIR, rank by count after grouping.
Where [10] appears, read: selection against MyD88 TIR, rank by count before grouping.
The mark [11] stands for this setting: P3_MyD88: rank by count after grouping.
[12] abbreviates: P3_MyD88: rank by count before grouping.
[13] abbreviates: selection against MyD88, rank by count after grouping.
The mark [14] stands for this setting: selection against MyD88, rank by count before grouping.

T1 sequence (Q99836 148-296): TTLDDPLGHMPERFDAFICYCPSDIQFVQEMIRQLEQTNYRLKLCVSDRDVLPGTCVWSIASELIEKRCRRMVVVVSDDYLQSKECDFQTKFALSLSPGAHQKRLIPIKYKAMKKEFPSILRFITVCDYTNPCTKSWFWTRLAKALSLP

For DLQDVGWFLSKLSQHI, the “Rank (after)” value under setting [1] was determined as 172. Further, the “Rank (before)” value under setting [2] worked out at 203. DVVCDYLLPNLEGPAG: the “P8_MyD88 Rank (after)” value under setting [3] turned out to be 606. Besides, the “P8_MyD88 Rank (before)” value under setting [4] is recorded as 2555. Take SENYATSPWRWMNWC: the “P3_MyD88 Rank (after)” value under setting [5] is listed as 541. For the same sequence, under setting [6], the “P3_MyD88 Rank (before)” value was 2992.

Regarding DYASSSWALDVLWNIF, the “Rank (after)” value under setting [7] is given as 950. Also, the “Rank (before)” value under setting [8] is recorded as 2507. Turning to EWIREQLRPALKERLP, the Population amounted to 0.00466%. For DPQGLDWYYVRLVSLL, under setting [7], the “Rank (after)” value is listed as 926. The “Rank (before)” value under setting [8] stood at 2666. As to WALDELLTILYAKETM, the “P8_MyD88 Rank (after)” value under setting [3] is reported as 608. Under setting [4], the “P8_MyD88 Rank (before)” value stood at 1468. As to LKEESWRRAQEKAGKL, the “P3_MyD88 Rank (after)” value under setting [5] turned out to be 531. Moreover, under setting [6], the “P3_MyD88 Rank (before)” value amounted to 2536. For YASSSWYRFELVDILW, the “Rank (after)” value under setting [7] is listed as 973. For the same sequence, the “Rank (before)” value under setting [8] is on record as 1874. Turning to LGYHGLIGSILWALK, the “P8_MyD88 Rank (after)” value under setting [3] worked out at 618. Further, the “P8_MyD88 Rank (before)” value under setting [4] is 3317.

As for DPQDLDWFYARLVRLF, the “P8_MyD88 Rank (after)” value under setting [9] is 270. For the same sequence, under setting [10], the “P8_MyD88 Rank (before)” value is reported as 2751. RFWERLRPALKERLP: the “Rank (after)” value under setting [11] was 449. Under setting [12], the “Rank (before)” value is 2551. In the case of DPQDEDWLYERLGGLF, the “P8_MyD88 Rank (after)” value under setting [13] came to 712. For the same sequence, the “P8_MyD88 Rank (before)” value under setting [14] worked out at 2696. As for YAFTGHLQRYLVQRCV, under setting [9], the “P3_MyD88 Rank (after)” value is on record as 234. Besides, under setting [10], the “P3_MyD88 Rank (before)” value amounted to 1531. For the sequence DPKALQWFYERLVSLI, the “P8_MyD88 Rank (after)” value under setting [5] is given as 562. Under setting [6], the “P8_MyD88 Rank (before)” value amounted to 3042. WDYASNMEQFWDPLYY: the “P8_MyD88 Rank (after)” value under setting [3] worked out at 675. Under setting [4], the “P8_MyD88 Rank (before)” value was 1642. For LVAHEISKKMKIFRP, the “Rank (after)” value under setting [11] came to 413. Further, the “Rank (before)” value under setting [12] came to 2302.

With YTALTNRGFLTFRDNA, the “Rank (after)” value under setting [11] amounted to 180. In addition, under setting [12], the “Rank (before)” value was determined as 1650.

With LEANDSLFWDRLIRMIE, the “P8_MyD88 Rank (after)” value under setting [3] is 635. Besides, under setting [4], the “P8_MyD88 Rank (before)” value is given as 3374.

Regarding YYDSRWALDELLKILDAKETM, the “Rank (after)” value under setting [1] is reported as 470. Under setting [2], the “Rank (before)” value was determined as 1677. Regarding YRKWGYLRIWDRWRFA, the “Rank (after)” value under setting [11] came out at 411. Under setting [12], the “Rank (before)” value is listed as 1613. LKWGDPWFWDRLRFA displayed a Population of 0.00437%.

Consider DSFFWDRLLYILHVTE, for which, under setting [3], the “P8_MyD88 Rank (after)” value is given as 654. In addition, the “P8_MyD88 Rank (before)” value under setting [4] came out at 3075. YASSSWELDELLRIPY: the “Rank (after)” value under setting [7] is on record as 966. Further, the “Rank (before)” value under setting [8] is on record as 1904.

Take SSFREGLLRLLELSKK: the Population is given as 0.0032%. Turning to PEKDNGGEIAFINNLV, the “P3_MyD88 Rank (after)” value under setting [5] turned out to be 547. Besides, the “P3_MyD88 Rank (before)” value under setting [6] came out at 2710. Consider PDEVKRTVGLTFSLSL, for which, under setting [13], the “P8_MyD88 Rank (after)” value is on record as 739. Also, the “P8_MyD88 Rank (before)” value under setting [14] is 3407.

Turning to WRDVLKYIANLSGWDS, the “P8_MyD88 Rank (after)” value under setting [9] is 243. Besides, the “P8_MyD88 Rank (before)” value under setting [10] was 435. Turning to YLLRSLFQTLFPRRTE, the “Rank (after)” value under setting [7] is recorded as 1013. Besides, the “Rank (before)” value under setting [8] is recorded as 2020. In the case of PYLLWVFDDEDGQELF, the “P8_MyD88 Rank (after)” value under setting [9] came to 199. Moreover, the “P8_MyD88 Rank (before)” value under setting [10] amounted to 291. KEVEGWRNALTNVASL: the “P3_MyD88 Rank (after)” value under setting [3] was 617. Besides, the “P3_MyD88 Rank (before)” value under setting [4] was 3650. For the sequence LSRVPSGHVIPGFVAI, the “P3_MyD88 Rank (after)” value under setting [5] is 529. The “P3_MyD88 Rank (before)” value under setting [6] is on record as 2378.

On to DEAWFLTKLRISLEHL, for which the “P8_MyD88 Rank (after)” value under setting [5] was 576. The “P8_MyD88 Rank (before)” value under setting [6] was determined as 2581. On to LVAHEISKKRKIFATS, for which, under setting [5], the “P3_MyD88 Rank (after)” value was found to be 511. For the same sequence, the “P3_MyD88 Rank (before)” value under setting [6] worked out at 2306.

For SENYATSPWAPELLR, the “P3_MyD88 Rank (after)” value under setting [3] is 658. Also, the “P3_MyD88 Rank (before)” value under setting [4] is 2990. In the case of DIADEDLPYLIRLLYSL, the “Rank (after)” value under setting [7] is on record as 955. For the same sequence, under setting [8], the “Rank (before)” value amounted to 3056. For LKGGDSYFWSKQPYAL, the “Rank (after)” value under setting [11] worked out at 385. For the same sequence, the “Rank (before)” value under setting [12] stood at 2529.

As to DPQALDWFYERLVRLF, under setting [9], the “P8_MyD88 Rank (after)” value stood at 279. Moreover, under setting [10], the “P8_MyD88 Rank (before)” value was 2689.
